# Values of other authors, collected in patent US20090004170A1, “COMPOSITION COMPRISING COENZYME Q10” (Kaneka Corporation, priority 2007, published 2009).
# How the values were obtained:
# [1] = not given; remark: listed apart in the source
structure (smiles),measurement,setting,value
COC1=C(OC)C(=O)C(C/C=C(\C)CC/C=C(\C)CC/C=C(\C)CC/C=C(\C)CC/C=C(\C)CC/C=C(\C)CC/C=C(\C)CC/C=C(\C)CC/C=C(\C)CCC=C(C)C)=C(C)C1=O [coenzyme Q10],absorbability by oral ingestion,,extremely low
same,solubility in water,[1],sparingly soluble
